Source: US20090035844A1, “Mechanical cell wounder device and related method” (HONG KONG BAPTIST UNIVERSITY, priority 2007, published 2009)

Test system: IEC-6 cells
Test: Wounding assay: migration of IEC-6 cells after mechanical wounding (96-well plate)
Format: cell-based, rat
Experimental: After incubation in 10% FBS supplemented DMEM for 24 hours, the cells are starved in serum-free medium for another 24 hours. […] A cell denuded area is created by scratching the cell monolayer with the eight-channel mechanical wounder fitted with p-10 pipette tips (Axygen, T-300). To ensure even contact between the tips and the bottom of the well, the pins are calibrated by adjusting the hex screw with a hex wrench. With the help of the guiding-bar, the wounder is fixed onto the 96-well plate where each channel (pipette tip) is positioned at the same level in the eight wells of the same column. During wounding, the cell monolayer is scratched by moving the wounder from the left inner edge to the right inner edge of the wells where a sharp wound is formed along the diameter of each well. The wounding procedure is then repeated for all columns of a 96-well plate.
Photomicrographs of wounds are taken at time zero (501, 503, 505), 16 hours (511, 513, 515) and 24 hours (521, 523, 525) after wounding. Images at time zero are taken to record the initial width of the wounds and the recovery of the wounded monolayers due to cell migration towards the denuded area can be evaluated at 16 and 24 hours. The images are captured using an inverted phase-contract microscope such as a TMS Nikon with 4× objective, and the width of wound can quantified by the software such as Motic image plus 2.0 software of Motic Instruments. The migration of cells towards the wounds is expressed as a percentage of wound closure where % of wound closure=[(Wt=0−Wt=16 or 24)/Wt=0]×100% where Wt=0 is the width of wound measured immediately after scratching and Wt=16 or 24 is the width of wound measured 16 hours or 24 hours after scratching.

Which “percentage of wound closure” value (16 hours after wounding, 5 mM DFMO in serum-free medium (control about 60%)) does the source give for `NCCC[C@](N)(C(=O)O)C(F)F` [DFMO, alpha-difluoromethylornithine] here?
Its value is 33%.

What about the “percentage of wound closure” value (24 hours after wounding, 5 mM DFMO in serum-free medium (control 76%)) of the same compound?
Its value is “around 50%”.

How did the “percentage of wound closure” value (24 hours after wounding, 20 ng/ml EGF in serum-free medium (control 76%)) turn out when “epithelial growth factor (NSDSECPLSHDGYCLHDGVCMYIEALDKYACNCVVGYIGERCQYRDLKWWELR; Epidermal growth factor; UniProt P01133 971-1023, looked up) [EGF, cell migration enhancer, used as the inducer of cell migration]” was run?
The value was ~100%.
